Data taken from publication PMC10649247, “Rapid Colloidal Gold Immunoassay for Pharmacokinetic Evaluation of Vancomycin in the Cerebrospinal Fluid and Plasma of Beagle Dogs” (Sensors (Basel, Switzerland), 2023).
Where a name gives a salt, the structure may show the parent alone.

Columns and labels:
[1] = system: VAN antibodies (monoclonal antibodies derived from mouse ascites); assay: Colloidal gold competitive immunoassay test strip (calibration curve and cross-reactivity); format: binding; conditions: for CR (%) = [IC50 of VAN/IC50 of the tested compound] × 100%: cross-reactivity of the colloidal gold test strip; for IC50 (ng/mL), cross-reactivity test: compounds at 0, 0.1, 1, 10, 100, 1000 and 10,000 ng/mL
Description: Colloidal gold nanoparticles, integral for inducing a visible color change at the test line of the assay strips, were synthesized by boiling 100 mL of a 0.01% HAuCl4 aqueous solution, followed by the addition of 1% sodium citrate aqueous solution [46, 47, 48]. […] Subsequently, VAN antibodies were conjugated to these gold nanoparticles. The VAN antibodies used were monoclonal antibodies derived from mouse ascites with a molecular weight of 150 kD. They were purchased from Shenzhen KeJie Industrial Development Co., Ltd. (Shenzhen, China). The efficacy of this conjugation relied on a trifecta of forces: ionic attractions between the negatively charged gold particles and the positively charged proteins, hydrophobic interactions, and sulfur bonds, particularly from thiol groups that linked two regions of the Fc segment of the antibody to the gold surface.
A sequence of critical steps must be followed for fabricating colloidal gold immunochromatographic test strips. Initially, a substrate, typically comprising paper or a film, was precoated with antibodies specifically tailored for detecting the target molecule. Subsequently, colloidal gold nanoparticles were synthesized by reducing gold salts and coupled with antibodies. This coupling was facilitated by the combination of ionic, hydrophobic, and sulfur bond interactions. The resultant antibody-labeled colloidal gold solution was then applied to the designated test line area on the substrate. Then, a control line was established to validate the operational integrity of the strip. Following these applications, the strip underwent a drying process, was trimmed to manageable dimensions, and was hermetically sealed in protective packaging to mitigate the risk of environmental contamination.
The intensity of the color on the test line indicated the signal value. We quantified this signal using a smartphone camera in combination with the ImageJ software (Fiji ImageJ for Mac, 2.3.0 version). […] We used ImageJ to extract the gray values from lines drawn perpendicular to both the control and test lines. […] Therefore, the effective signal, represented as B, is determined by the absolute difference in gray value between the test line and its adjacent area.
The test line is coated with a competitive VAN–BSA antigen, and the control line is coated with […]. Upon application of the sample to the sample pad, the sample flows through the colloidal gold pad to interact with the gold-labeled antibodies. It then progresses through the test and control lines before being absorbed into the absorbent paper. The appearance of a visible line in the test area signifies a negative result for VAN (Figure 1(b1)). […] Regardless of the presence or absence of VAN, a red control line should always appear when the test is operating correctly. Otherwise, the results are invalid. Figure 1c depicts the four scenarios that may arise during testing.
Under optimized assay conditions, we used in-house-prepared VAN standard samples to validate the performance metrics of the test strips. The concentrations of the standard samples were 0, 1, 2, 4, 8, 16, 32, 64, 128, 256, 512, and 1024 ng/mL. For the analysis, we applied 4–5 drops of each sample onto the test strips and allowed them to air-dry for 10 min. We observed an inverse correlation between the VAN concentration and the test line signal intensity. We then proceeded to construct a calibration curve to elucidate the correlation between the optical signals (designated as B/B0) and the respective VAN concentrations. In this context, B represents the optical signals for each standard concentration of VAN, while B0 signifies the optical signal at a zero-concentration baseline. […]

[2] = Pharmacokinetic study of VAN in plasma of beagle dogs (LC-MS); format: in vivo; conditions: single intravenous dose 12 mg/kg, average of three dogs
Description: (§1) Animal Dosing and Sample Collection: The choice of using beagle dogs for the pharmacokinetic studies of VAN in CSF and plasma is driven by their physiological similarities to humans, which make them a suitable model for predicting human pharmacokinetics. Three male beagle dogs, each weighing approximately 11 kg and aged 10 months, were utilized for pharmacokinetic studies. Both the acquisition of the beagle dogs and the sample collection were conducted by Beijing Sinogenetic Biotechnology Co., Ltd. (Beijing, China). The animal protocols employed for this research were reviewed and approved by Beijing Sinogenetic Biotechnology Co., Ltd. (XNY-20230524001). The beagle dogs were anesthetized and subsequently administered a single intravenous dose of a pre-prepared 50 mg/mL VAN hydrochloride solution at a dosage level of 12 mg/kg, with the injection time lasting approximately 2–3 s. CSF and plasma samples were collected at predetermined time points: predose (0 min) and postdose at intervals of 5 min, 10 min, 30 min, 1 h, 2 h, 4 h, 8 h, and 24 h. […]
(§2) An HPLC–MS method was established to precisely quantify VAN levels in CSF and plasma samples collected from beagle dogs. […] The methodological rigor ensured a high degree of specificity and sensitivity in VAN quantification, effectively fulfilling the objectives of this study.

[3] = Pharmacokinetic study of VAN in CSF of beagle dogs (LC-MS); format: in vivo; conditions: single intravenous dose 12 mg/kg, average of three dogs
Description: as §1, §2

| CR (%) = [IC50 of VAN/IC50 of the tested compound] × 100% [1] [%] | IC50 (ng/mL), cross-reactivity test ([1]; test strip) | Compound | LOD, concentration of VAN giving a 10% inhibition of the maximum absorbance ([1]; test strip calibration curve, read after 10 min, n = 3) [ng/mL] | inhibitory concentration 50% (IC50) from the calibration curve (B/B0 against VAN concentration) ([1]; test strip, standard samples 0-1024 ng/mL, read after 10 min, smartphone/ImageJ gray value, n = 3) [µg/mL] | peak concentration of VAN in plasma [2] [µg/mL] | concentration of VAN in plasma within ~4 h ([2]; ~4 h post dose) | time at which VAN concentration in CSF reaches its maximum [3] |
| --- | --- | --- | --- | --- | --- | --- | --- |
| <0.5 | >10^4 ng/mL | C[C@@H](O)[C@H]1C(=O)N2C(C(=O)O)=C(S[C@@H]3CN[C@H](C(=O)N(C)C)C3)[C@H](C)[C@H]12 [Meropenem, meropenem] |  |  |  |  |  |
| <0.5 | >10^4 ng/mL | teicoplanin |  |  |  |  |  |

Continued, compound first:

| Compound | CR (%) = [IC50 of VAN/IC50 of the tested compound] × 100% [1] [%] | IC50 (ng/mL), cross-reactivity test ([1]; test strip) | LOD, concentration of VAN giving a 10% inhibition of the maximum absorbance ([1]; test strip calibration curve, read after 10 min, n = 3) [ng/mL] | inhibitory concentration 50% (IC50) from the calibration curve (B/B0 against VAN concentration) ([1]; test strip, standard samples 0-1024 ng/mL, read after 10 min, smartphone/ImageJ gray value, n = 3) [µg/mL] | peak concentration of VAN in plasma [2] [µg/mL] | concentration of VAN in plasma within ~4 h ([2]; ~4 h post dose) | time at which VAN concentration in CSF reaches its maximum [3] |
| --- | --- | --- | --- | --- | --- | --- | --- |
| CCCCCCCCCCNCCN[C@@]1(C)C[C@H](O[C@H]2[C@H](Oc3c4cc5cc3Oc3ccc(cc3Cl)[C@@H](O)[C@@H](NC(=O)[C@@H](CC(C)C)NC)C(=O)N[C@@H](CC(N)=O)C(=O)N[C@H]5C(=O)N[C@H]3C(=O)N[C@H](C(=O)N[C@H](C(=O)O)c5cc(O)c(CNCP(=O)(O)O)c(O)c5-c5cc3ccc5O)[C@H](O)c3ccc(c(Cl)c3)O4)O[C@H](CO)[C@@H](O)[C@@H]2O)O[C@@H](C)[C@H]1O [Telavancin, telavancin] | <0.5 | >10^4 ng/mL |  |  |  |  |  |
| CN[C@H](CC(C)C)C(=O)N[C@H]1C(=O)N[C@@H](CC(N)=O)C(=O)N[C@H]2C(=O)N[C@H]3C(=O)N[C@H](C(=O)N[C@H](C(=O)O)c4cc(O)cc(O)c4-c4cc3ccc4O)[C@H](O[C@H]3C[C@](C)(N)[C@@H](O)[C@H](C)O3)c3ccc(c(Cl)c3)Oc3cc2cc(c3O[C@@H]2O[C@H](CO)[C@@H](O)[C@H](O)[C@H]2O[C@H]2C[C@](C)(NCc3ccc(-c4ccc(Cl)cc4)cc3)[C@@H](O)[C@H](C)O2)Oc2ccc(cc2Cl)[C@H]1O [Oritavancin, oritavancin] | <0.5 | >10^4 ng/mL |  |  |  |  |  |
| CN[C@H]1C(=O)N[C@@H]2Cc3ccc(cc3)Oc3cc4cc(c3O[C@@H]3O[C@H](C(=O)O)[C@@H](O)[C@H](O)[C@H]3NC(=O)CCCCCCCCC(C)C)Oc3ccc(cc3Cl)[C@@H](O)[C@@H]3NC(=O)[C@H](NC(=O)[C@@H]4NC(=O)[C@@H](NC2=O)c2cc(cc(O)c2Cl)Oc2cc1ccc2O)c1ccc(O)c(c1)-c1c(O[C@H]2O[C@H](CO)[C@@H](O)[C@H](O)[C@@H]2O)cc(O)cc1[C@@H](C(=O)NCCCN(C)C)NC3=O [Dalbavancin, dalbavancin] | <0.5 | >10^4 ng/mL |  |  |  |  |  |
| CN[C@H](CC(C)C)C(=O)N[C@H]1C(=O)N[C@@H](CC(N)=O)C(=O)N[C@H]2C(=O)N[C@H]3C(=O)N[C@H](C(=O)N[C@H](C(=O)O)c4cc(O)cc(O)c4-c4cc3ccc4O)[C@H](O)c3ccc(c(Cl)c3)Oc3cc2cc(c3O[C@@H]2O[C@H](CO)[C@@H](O)[C@H](O)[C@H]2O[C@H]2C[C@](C)(N)[C@H](O)[C@H](C)O2)Oc2ccc(cc2Cl)[C@H]1O [VAN, Vancomycin hydrochloride] | 100 |  | 10.3 | 0.0445 | 40 | below 1 µg/mL | ~ 2 h |
| NCC[C@H](O)C(=O)N[C@@H]1C[C@H](N)[C@@H](O[C@H]2O[C@H](CN)[C@@H](O)[C@H](O)[C@H]2O)[C@H](O)[C@H]1O[C@H]1O[C@H](CO)[C@@H](O)[C@H](N)[C@H]1O [Amikacin, amikacin] | <0.5 | >10^4 ng/mL |  |  |  |  |  |
